± gives the standard deviation of the averaged measurements.
Experiments:
Assay in all cases: level (log10 ratio to DMSO vehicle control); higher = higher biomarker level / cell amount than vehicle control
[1] = compound: O=S(=O)(O)C(F)(F)C(F)(F)OC(F)(F)C(F)(F)F [Perfluoro(2-ethoxyethane)sulfonic acid] (in DMSO)
Procedure: (§1)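 BioMAP Diversity Plus panel of 12 human primary cell co-culture systems (3C, 4H, LPS, SAg, BT, BF4T, BE3C, CASM3C, HDF3CGF, KF3CT, MyoF, Mphg). Compounds were added 1 h before stimulation and left for 24 h (MyoF 48 h; BT 72 h for soluble read-outs or 6 d for IgG). Biomarkers were read by ELISA, cytotoxicity by SRB, PBMC viability and proliferation by Alamar Blue. Each well value was divided by the mean of 8 DMSO control wells on the same plate and log10 transformed; duplicate blinded samples were tested at 4 concentrations.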

[2] = compound: CCOC(=O)CC(=O)C(F)(F)C(F)(F)F [Ethyl pentafluoropropionyl acetate] (in DMSO)
Procedure: as §1

[3] = compound: CN(C(=O)C(F)(F)C(F)(F)C(F)(F)F)[Si](C)(C)C [N-Methyl-N-trimethylsilylheptafluorobutyramide] (in DMSO)
Procedure: as §1

[4] = compound: O=S(=O)(O)CCC(F)(F)C(F)(F)C(F)(F)C(F)(F)C(F)(F)C(F)(F)C(F)(F)C(F)(F)F [8:2 Fluorotelomer sulfonic acid] (in DMSO)
Procedure: as §1

[5] = compound: NS(=O)(=O)C(F)(F)C(F)(F)C(F)(F)C(F)(F)C(F)(F)C(F)(F)C(F)(F)C(F)(F)F [Perfluorooctanesulfonamide] (in DMSO)
Procedure: as §1

[6] = compound: O=C(O)C(F)(F)OC(F)(F)C(F)(F)OC(F)(F)C(F)(F)OC(F)(F)C(F)(F)C(F)(F)C(F)(F)F [Perfluoro-3,6,9-trioxatridecanoic acid] (in DMSO); details: 6700 nM
Procedure: as §1

[7] = compound: O=C(O)C=C(C(F)(F)F)C(F)(F)F [3,3-Bis(trifluoromethyl)-2-propenoic acid] (in DMSO)
Procedure: as §1

| Test System | level (log10) ([1]; 6700 nM) | level (log10) ([1]; 20000 nM) | level (log10) ([1]; 60000 nM) | level (log10) ([2]; 6700 nM) | level (log10) ([2]; 20000 nM) | level (log10) ([2]; 60000 nM) | level (log10) ([3]; 6700 nM) | level (log10) ([3]; 20000 nM) | level (log10) ([3]; 60000 nM) | level (log10) ([4]; 6700 nM) | level (log10) ([4]; 20000 nM) | level (log10) ([4]; 60000 nM) | level (log10) ([5]; 6700 nM) | level (log10) ([5]; 20000 nM) | level (log10) [6] | level (log10) ([7]; 6700 nM) | level (log10) ([7]; 20000 nM) | level (log10) ([7]; 60000 nM) |
| --- | --- | --- | --- | --- | --- | --- | --- | --- | --- | --- | --- | --- | --- | --- | --- | --- | --- | --- |
| BT:B cell Proliferation | 0.011 ± 0.011 | 0.0575 ± 0.036 | 0.034 ± 0.0014 | 0.012 ± 0.017 | -0.006 ± 0.011 | 0.0035 ± 0.022 | 0.01 ± 0.014 | -0.01 ± 0.02 | -0.007 ± 0.0014 | 0.016 ± 0.016 | 0.0415 ± 0.005 | 0.0475 ± 0.033 | 0.0205 ± 0.0064 | 0.024 ± 0.028 | 0.028 ± 0.02 | -0.0145 ± 0.0021 | -0.0385 ± 0.0035 | -0.121 ± 0.0064 |
| BF4T:CCL2/MCP-1 | 0.0155 ± 0.0064 | 0.0155 ± 0.0064 | 0.0315 ± 0.039 | -0.006 ± 0.011 | -0.0145 ± 0.00071 | -0.0015 ± 0.0078 | 0.002 ± 0.0014 | 0.002 ± 0.0042 | 0.018 ± 0.018 | 0.037 ± 0.023 | -0.019 ± 0.0028 | -0.002 ± 0.034 | -0.084 ± 0.0071 | -0.0565 ± 0.018 | -0.155 ± 0.11 | 0.0005 ± 0.0021 | -0.052 ± 0.031 | -0.0635 ± 0.0064 |
| SAg:CCL2/MCP-1 | 0.0065 ± 0.0078 | 0.0055 ± 0.011 | 0.0145 ± 0.019 | -0.0005 ± 0.011 | -0.0225 ± 0.0078 | 0.011 ± 0.0085 | -0.0135 ± 0.0078 | -0.012 ± 0.018 | -0.0005 ± 0.026 | -0.0035 ± 0.019 | 0 ± 0.0099 | -0.0025 ± 0.0078 | -0.0125 ± 0.021 | 0.0075 ± 0.015 | -0.0125 ± 0.018 | -0.0145 ± 0.00071 | -0.0535 ± 0.0078 | -0.079 ± 0.042 |
| LPS:CD69 | 0.0305 ± 0.04 | -0.007 ± 0.027 | -0.023 ± 0.068 | -0.02 ± 0.013 | -0.048 ± 0.02 | -0.021 ± 0.072 | -0.004 ± 0.011 | -0.013 ± 0.041 | 0.004 ± 0.011 | -0.0455 ± 0.06 | -0.035 ± 0.071 | -0.0835 ± 0.049 | -0.0475 ± 0.0064 | -0.13 | 0.013 ± 0.0014 | -0.072 ± 0.02 | -0.0565 ± 0.057 | -0.028 ± 0.09 |
| BF4T:CD106/VCAM-1 | 0.003 ± 0.0057 | 0.0045 ± 0.028 | 0.021 ± 0.055 | -0.0035 ± 0.016 | 0.0155 ± 0.013 | -0.037 ± 0.031 | 0.0095 ± 0.025 | 0.0315 ± 0.015 | 0.0035 ± 0.026 | 0.0035 ± 0.035 | -0.0285 ± 0.03 | -0.041 ± 0.0028 | -0.052 ± 0.0057 | -0.1125 ± 0.00071 | -0.205 ± 0.067 | -0.0755 ± 0.0064 | -0.0945 ± 0.005 | -0.047 ± 0.067 |
| LPS:CXCL8/IL-8 | 0.0585 ± 0.025 | 0.108 ± 0.07 | 0.21 ± 0.04 | -0.022 ± 0.025 | -0.01 ± 0.0071 | -0.0005 ± 0.023 | 0.008 ± 0.0028 | 0.0245 ± 0.018 | 0.016 ± 0.052 | 0.01 ± 0.11 | 0.0485 ± 0.012 | -0.053 ± 0.17 | 0.005 ± 0.016 | -0.008 ± 0.0014 | -0.0465 ± 0.061 | -0.052 ± 0.0099 | -0.047 ± 0.037 | -0.007 ± 0.069 |
| LPS:sTNF-alpha | 0.011 ± 0.0057 | -0.0005 ± 0.0035 | -0.0005 ± 0.0092 | 0.0125 ± 0.015 | 0.0095 ± 0.0064 | 0.0085 ± 0.012 | -0.004 ± 0.0042 | -0.002 ± 0.011 | -0.0065 ± 0.015 | 0.0095 ± 0.011 | -0.006 ± 0.0099 | -0.212 ± 0.12 | 0.007 ± 0.0042 | -0.0245 ± 0.00071 | -0.019 ± 0.024 | -0.0305 ± 0.042 | 0.0195 ± 0.023 | -0.0025 ± 0.035 |
| BF4T:CD90 | -0.01 ± 0.0085 | -0.0185 ± 0.0092 | -0.0185 ± 0.0021 | -0.009 ± 0.018 | -0.0015 ± 0.013 | -0.0135 ± 0.012 | -0.0225 ± 0.022 | -0.006 ± 0.0071 | 0.0065 ± 0.005 | -0.008 ± 0.0028 | -0.018 ± 0.0014 | -0.0355 ± 0.0092 | -0.0275 ± 0.012 | -0.0585 ± 0.016 | 0.0045 ± 0.0021 | -0.0205 ± 0.011 | -0.022 ± 0.0042 | -0.0235 ± 0.019 |
